Legend:
Human HDAC4 = molecular target: T1, Human HDAC4 (Homo sapiens, UniProt P56524); test: HDAC4 biochemical assay, class IIa-specific substrate; conditions: read-out: HDAC Isoform IC50 (nM) 4
T1 construct: amino acids 627-1085 with N-terminal GST tag; GST (N); host or cells: baculovirus expression system
Outline: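 Two-step fluorogenic read-out: deacetylated BOC-Lys(trifluoroacetyl)-AMC (50 μM) was digested by developer and measured at Ex/Em 360/460. Deacetylation by 0.004 ng/ul HDAC4 (aa 627-1085, N-terminal GST) ran 30 min at room temperature, pH 8.0 Tris buffer, 1 mg/mL BSA, 1% DMSO.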

Recombinant human HDAC6 = molecular target: T2, Recombinant human HDAC6 (Homo sapiens, UniProt Q9UBN7); test: HDAC6 biochemical assay, AMC-labeled peptide substrate; conditions: HDAC6; read-out: HDAC Isoform IC50 (nM) 6
T2 construct: full length, MW=159 kDa; GST (N); host or cells: Sf9 insect cells (baculovirus)
T2 sequence (Q9UBN7 1-1215): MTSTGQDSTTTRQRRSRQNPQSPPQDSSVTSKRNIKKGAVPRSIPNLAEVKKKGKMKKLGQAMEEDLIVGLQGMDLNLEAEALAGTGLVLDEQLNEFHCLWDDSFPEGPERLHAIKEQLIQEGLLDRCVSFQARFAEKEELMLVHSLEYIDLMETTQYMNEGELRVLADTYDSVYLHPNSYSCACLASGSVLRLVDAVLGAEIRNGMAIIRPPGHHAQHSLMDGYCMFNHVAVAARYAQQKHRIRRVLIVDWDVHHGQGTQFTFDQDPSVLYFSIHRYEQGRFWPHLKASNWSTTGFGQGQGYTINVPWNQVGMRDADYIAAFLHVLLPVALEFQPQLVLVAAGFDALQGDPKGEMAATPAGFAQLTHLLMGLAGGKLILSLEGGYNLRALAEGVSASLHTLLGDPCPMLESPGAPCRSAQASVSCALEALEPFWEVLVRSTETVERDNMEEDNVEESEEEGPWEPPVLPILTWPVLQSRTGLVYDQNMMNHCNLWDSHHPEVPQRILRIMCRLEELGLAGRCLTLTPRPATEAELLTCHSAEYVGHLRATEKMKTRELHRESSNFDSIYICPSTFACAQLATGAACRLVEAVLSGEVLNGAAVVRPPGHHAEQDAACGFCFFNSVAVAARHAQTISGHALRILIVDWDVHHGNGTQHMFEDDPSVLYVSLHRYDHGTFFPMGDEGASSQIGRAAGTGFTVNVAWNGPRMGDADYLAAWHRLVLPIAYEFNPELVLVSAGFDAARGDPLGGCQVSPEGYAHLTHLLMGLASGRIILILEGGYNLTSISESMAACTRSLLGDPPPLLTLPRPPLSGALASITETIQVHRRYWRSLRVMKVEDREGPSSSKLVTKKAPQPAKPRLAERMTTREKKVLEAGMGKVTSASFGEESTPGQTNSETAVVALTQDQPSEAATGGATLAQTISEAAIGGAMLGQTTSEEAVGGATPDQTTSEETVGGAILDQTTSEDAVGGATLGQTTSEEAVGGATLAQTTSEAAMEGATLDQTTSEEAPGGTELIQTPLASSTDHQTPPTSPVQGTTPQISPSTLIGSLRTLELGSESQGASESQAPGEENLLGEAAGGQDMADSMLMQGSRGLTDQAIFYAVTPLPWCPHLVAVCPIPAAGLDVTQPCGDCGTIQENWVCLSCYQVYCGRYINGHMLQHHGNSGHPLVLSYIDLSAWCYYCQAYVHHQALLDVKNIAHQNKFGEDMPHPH
Outline: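 Two-step fluorogenic read-out: enzyme deacetylates 50 μM RHKK(Ac)AMC for 1 h at 30° C in pH 8.0 Tris buffer with BSA and 1% DMSO, then developer cleavage gives signal at Ex 360/Em 460. Enzyme: 0.3 ng/ul recombinant full-length human HDAC6, GST-tagged, Sf9-expressed.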

Human HDAC9 = molecular target: T3, Human HDAC9 (Homo sapiens, UniProt Q9UKV0); test: HDAC9 biochemical assay, class IIa-specific substrate; conditions: read-out: HDAC Isoform IC50 (nM) 9
T3 construct: amino acids 604-1066 with C-terminal His tag; His (C); host or cells: baculovirus expression system
Outline: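 HDAC9 residues 604-1066 (C-terminal His tag, baculovirus-expressed) at 0.06 ng/ul with 50 μM class IIa substrate Boc-Lys(trifluoroacetyl)-AMC in Tris-HCl pH 8.0 buffer with BSA and 1% DMSO. 30 min at room temperature, then developer added; fluorescence read at 360/460 nm Ex/Em.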

T3 sequence (Q9UKV0 604-1066 isoform Q9UKV0-5): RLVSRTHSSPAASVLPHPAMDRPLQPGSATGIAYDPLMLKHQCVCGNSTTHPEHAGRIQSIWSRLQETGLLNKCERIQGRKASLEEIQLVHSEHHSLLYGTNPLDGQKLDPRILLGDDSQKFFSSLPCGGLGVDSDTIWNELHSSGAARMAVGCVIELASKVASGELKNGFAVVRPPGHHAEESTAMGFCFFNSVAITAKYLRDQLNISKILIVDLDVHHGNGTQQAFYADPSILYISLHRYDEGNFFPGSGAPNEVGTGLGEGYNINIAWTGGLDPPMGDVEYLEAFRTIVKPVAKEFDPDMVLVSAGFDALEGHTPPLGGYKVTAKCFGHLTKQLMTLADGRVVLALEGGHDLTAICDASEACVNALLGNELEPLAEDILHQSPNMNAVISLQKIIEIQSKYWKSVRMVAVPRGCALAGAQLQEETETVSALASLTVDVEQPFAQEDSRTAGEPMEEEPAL
T1 sequence (P56524 627-1084 limits assumed): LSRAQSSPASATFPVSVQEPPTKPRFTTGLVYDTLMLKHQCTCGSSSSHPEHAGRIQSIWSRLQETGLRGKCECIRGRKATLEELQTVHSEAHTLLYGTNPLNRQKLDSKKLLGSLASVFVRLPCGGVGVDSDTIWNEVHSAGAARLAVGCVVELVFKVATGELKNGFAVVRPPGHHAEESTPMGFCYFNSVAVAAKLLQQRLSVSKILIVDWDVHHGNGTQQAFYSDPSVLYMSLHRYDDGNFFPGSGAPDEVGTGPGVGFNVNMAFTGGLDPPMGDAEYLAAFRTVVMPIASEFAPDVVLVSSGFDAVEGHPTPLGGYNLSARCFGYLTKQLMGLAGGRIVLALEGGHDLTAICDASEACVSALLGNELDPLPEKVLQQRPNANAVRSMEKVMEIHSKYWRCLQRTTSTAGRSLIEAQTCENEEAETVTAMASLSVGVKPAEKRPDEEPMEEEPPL

Row | Compound | IC50 (Human HDAC4) [nM] | IC50 (Recombinant human HDAC6) [nM] | IC50 (Human HDAC9) [nM]
1 | OC1(c2cnnc(N(Cc3ccc(-c4noc(C(F)(F)F)n4)s3)c3cnccn3)c2)COC1 [Example GW, 3-{6-[(Pyrazin-2-yl)({5-[5-(trifluoromethyl)-1,2,4-oxadiazol-3-yl]thiophen-2-yl}methyl)amino]pyridazin-4-yl}oxetan-3-ol] | ≤ 10000 | ≤ 500 | ≤ 10000
2 | FC(F)(F)c1cnnc(N(Cc2ccc(-c3noc(C(F)(F)F)n3)s2)c2cc(C(F)(F)F)cnn2)c1 [Example EU, 5-(Trifluoromethyl)-N-({5-[5-(trifluoromethyl)-1,2,4-oxadiazol-3-yl]thiophen-2-yl}methyl)-N-[5-(trifluoromethyl)pyridazin-3-yl]pyridazin-3-amine] | ≤ 10000 | ≤ 500 | > 10000
3 | NC(=O)c1cnnc(N(Cc2ccc(-c3noc(C(F)(F)F)n3)s2)c2cnccn2)c1 [Example DX, 6-[(Pyrazin-2-yl)({5-[5-(trifluoromethyl)-1,2,4-oxadiazol-3-yl]thiophen-2-yl}methyl)amino]pyridazine-4-carboxamide] | ≤ 1000 | ≤ 500 | ≤ 10000
4 | O=C(c1cnnc(N(Cc2ccc(-c3noc(C(F)(F)F)n3)s2)c2cnccn2)c1)N1CCC12COC2 [Example GF, 5-{6-Oxa-1-azaspiro[3.3]heptane-1-carbonyl}-N-(pyrazin-2-yl)-N-({5-[5-(trifluoromethyl)-1,2,4-oxadiazol-3-yl]thiophen-2-yl}methyl)pyridazin-3-amine] | ≤ 1000 | ≤ 500 | ≤ 10000
5 | FC(F)(F)c1cnc(N(Cc2ccc(-c3noc(C(F)(F)F)n3)s2)c2cnccn2)cn1 [Example BK, N-(Pyrazin-2-yl)-5-(trifluoromethyl)-N-({5-[5-(trifluoromethyl)-1,2,4-oxadiazol-3-yl]thiophen-2-yl}methyl)pyrazin-2-amine] | ≤ 10000 | ≤ 10000 | ≤ 10000
6 | CC(=O)Nc1cnnc(N(Cc2ccc(-c3noc(C(F)(F)F)n3)s2)c2cnccn2)c1 [Example FM, N-{6-[(Pyrazin-2-yl)({5-[5-(trifluoromethyl)-1,2,4-oxadiazol-3-yl]thiophen-2-yl}methyl)amino]pyridazin-4-yl}acetamide] | ≤ 1000 | ≤ 500 | ≤ 10000
7 | CNC(=O)c1cnnc(N(Cc2ccc(-c3noc(C(F)(F)F)n3)s2)c2cnccn2)c1 [Example DY, N-Methyl-6-[(pyrazin-2-yl)({5-[5-(trifluoromethyl)-1,2,4-oxadiazol-3-yl]thiophen-2-yl}methyl)amino]pyridazine-4-carboxamide] | ≤ 1000 | ≤ 500 | ≤ 10000
8 | COC1CN(Cc2ccnc(N(Cc3ccc(-c4noc(C(F)(F)F)n4)s3)c3cnccn3)c2)C1 [Example GH, N-{4-[(3-Methoxyazetidin-1-yl)methyl]pyridin-2-yl}-N-({5-[5-(trifluoromethyl)-1,2,4-oxadiazol-3-yl]thiophen-2-yl}methyl)pyrazin-2-amine] | ≤ 10000 | ≤ 500 | ≤ 10000
9 | O=C(c1ccc(N(Cc2ccc(-c3noc(C(F)(F)F)n3)s2)c2cnccn2)nn1)N1C[C@@H]2C[C@H]1C[S@@+]2[O-] [Example FR, (1S,2R,4S)-5-{6-[(Pyrazin-2-yl)({5-[5-(trifluoromethyl)-1,2,4-oxadiazol-3-yl]thiophen-2-yl}methyl)amino]pyridazine-3-carbonyl}-2-thia-5-azabicyclo[2.2.1]heptan-2-ium-2-olate] | ≤ 500 | ≤ 500 | ≤ 1000
10 | Fc1ccnc(N(Cc2ccc(-c3noc(C(F)(F)F)n3)s2)c2cnccn2)c1 [Example AG, N-(4-Fluoropyridin-2-yl)-N-({5-[5-(trifluoromethyl)-1,2,4-oxadiazol-3-yl]thiophen-2-yl}methyl)pyrazin-2-amine] | ≤ 10000 | ≤ 500 | ≤ 10000
11 | O=C(c1cnnc(N(Cc2ccc(-c3noc(C(F)(F)F)n3)s2)c2cnccn2)c1)N1CC(O)(C(F)(F)F)C1 [Example GD, 1-{6-[(Pyrazin-2-yl)({5-[5-(trifluoromethyl)-1,2,4-oxadiazol-3-yl]thiophen-2-yl}methyl)amino]pyridazine-4-carbonyl}-3-(trifluoromethyl)azetidin-3-ol] | ≤ 10000 | ≤ 500 | ≤ 10000
12 | Cc1nccnc1N(Cc1ccc(-c2noc(C(F)(F)F)n2)s1)c1cnccn1 [Example BE, 3-Methyl-N-(pyrazin-2-yl)-N-({5-[5-(trifluoromethyl)-1,2,4-oxadiazol-3-yl]thiophen-2-yl}methyl)pyrazin-2-amine] | ≤ 500 | ≤ 500 | ≤ 1000
13 | COC1CN(C(=O)c2ccc(N(Cc3ccc(-c4noc(C(F)(F)F)n4)s3)c3cnccn3)nn2)C1 [Example DR, 6-(3-Methoxyazetidine-1-carbonyl)-N-(pyrazin-2-yl)-N-({5-[5-(trifluoromethyl)-1,2,4-oxadiazol-3-yl]thiophen-2-yl}methyl)pyridazin-3-amine] | ≤ 500 | ≤ 500 | ≤ 500
14 | O=C(c1ccc(N(Cc2ccc(-c3noc(C(F)(F)F)n3)s2)c2cnccn2)nn1)N1CCC2(COC2)C1 [Example FJ, 6-{2-Oxa-6-azaspiro[3.4]octane-6-carbonyl}-N-(pyrazin-2-yl)-N-({5-[5-(trifluoromethyl)-1,2,4-oxadiazol-3-yl]thiophen-2-yl}methyl)pyridazin-3-amine] | ≤ 500 | ≤ 500 | ≤ 1000
15 | COc1cncc(N(Cc2ccc(-c3noc(C(F)(F)F)n3)s2)c2cnccn2)n1 [Example BQ, 6-Methoxy-N-(pyrazin-2-yl)-N-({5-[5-(trifluoromethyl)-1,2,4-oxadiazol-3-yl]thiophen-2-yl}methyl)pyrazin-2-amine] | ≤ 10000 | ≤ 500 | ≤ 10000
16 | O=C(O)c1ccc(N(Cc2sc(-c3noc(C(F)(F)F)n3)cc2F)c2cnccn2)nn1 [Example EZ, 6-[({3-Fluoro-5-[5-(trifluoromethyl)-1,2,4-oxadiazol-3-yl]thiophen-2-yl}methyl)(pyrazin-2-yl)amino]pyridazine-3-carboxylic acid] | ≤ 10000 | ≤ 10000 | ≤ 10000
17 | FC(F)(F)c1nc(-c2ccc(CN(c3cnccn3)c3cc(N4CCOCC4)cnn3)s2)no1 [Example FP, 5-(Morpholin-4-yl)-N-(pyrazin-2-yl)-N-({5-[5-(trifluoromethyl)-1,2,4-oxadiazol-3-yl]thiophen-2-yl}methyl)pyridazin-3-amine] | ≤ 1000 | ≤ 500 | ≤ 10000
18 | FC(F)(F)c1nc(-c2ccc(CN(c3cnccn3)c3cc(CN4CCOCC4)ccn3)s2)no1 [Example GI, N-{4-[(Morpholin-4-yl)methyl]pyridin-2-yl}-N-({5-[5-(trifluoromethyl)-1,2,4-oxadiazol-3-yl]thiophen-2-yl}methyl)pyrazin-2-amine] | ≤ 10000 | ≤ 1000 | ≤ 10000
19 | N#Cc1cnnc(N(Cc2ccc(-c3noc(C(F)(F)F)n3)s2)c2cnccn2)c1 [Example EE, 6-[(Pyrazin-2-yl)({5-[5-(trifluoromethyl)-1,2,4-oxadiazol-3-yl]thiophen-2-yl}methyl)amino]pyridazine-4-carbonitrile] | ≤ 10000 | ≤ 500 | ≤ 10000

— US20210038607A1, “OXADIAZOLYLTHIOPHENE DERIVATIVES USEFUL AS HISTONE DEACETYLASE INHIBITORS” (Karus Therapeutics Limited, priority 2018, published 2021)
